Source: patent US10730829B2, “Compound exhibiting anti-oxidative or anti-inflammatory activity” (University-Industry Cooperation Group of Kyung Hee …, priority 2016, dated 2020)

Test system: Raw 264.7 cells
Experiment: Inhibition of LDH release from Ox-LDL-oxidised Raw 264.7 cells (WST absorbance)
Assay type: cell-based
Conditions: Ox-LDL 100 μg/mL, compared to the positive control group (LDH release rate 30%)
Method: To confirm the anti-oxidative effect of the compounds according to the present invention, the amount of lactate dehydrogenase (LDH), which is a material released from cells killed or damaged by oxidation, was measured by measuring the absorbance using water soluble tetrazolium salt (WST) to measure cytotoxicity. Specifically, Raw 264.7 cells, in which oxidation was induced with 100 μg/mL of oxidized low-density lipoprotein (Ox-LDL), were treated with test materials (2 kinds of comparative groups and 2 kinds of experimental groups) at 1 μM and 10 μM concentrations, respectively, and their ability to inhibit LDH release (i.e., a standard indicator of anti-oxidative effects) was confirmed. As reference, the LDH release rate in the negative control group in which no treatment was made was 7% and the LDH release rate in the positive control group treated with only Ox-LDL was 30%.

Row | SMILES | decrease of LDH release rate (1 μM) [%] | decrease of LDH release rate (10 μM) [%]
1 | CC(=O)N[C@@H](CS)C(=O)O [NAC, N-acetyl-L-cysteine] | 6 | 13
2 | C=CCSC[C@H](N)C(=O)O [SAC, S-allyl-L-cysteine] | 7 | 16
3 | CC(=O)NC(CSCCCSCC(NC(C)=O)C(=O)O)C(=O)O (centres unmarked) [Newcompound-2, 2,14-dioxo-6,10-dithia-3,13-diazapentadecan-4,12-dicarboxylic acid] | 11 | 20
4 | CC(=O)NC(CSCCCSCC(N)C(=O)O)C(=O)O (centres unmarked) [Newcompound-1, 2-acetamido-3-(3-(2-amino-2-carboxyethylthio)propylthio)propanoic acid] | 12 | 21
